{"source": "patent US12077503B2", "about": "“Substituted cyclic amides and their use as herbicides” (FMC CORPORATION, priority 2015, dated 2024)", "assay_type_in_all_cases": "in vivo", "key": {"[1]": {"system": "barnyardgrass (Echinochloa crus-galli)", "assay": "Test B flooded paddy test", "conditions": "Echinochloa crus-galli, 360 h, Flood, 250 g ai/ha; visually evaluated after 13 to 15 d; read-out: Plant response rating, Barnyardgrass (0 to 100 scale where 0 is no effect and 100 is complete control)", "method_in_brief": "(§1)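 Plants at 2-leaf stage flooded to 3 cm above soil, with compounds applied directly to paddy water and that depth maintained. Plants kept in greenhouse 13–15 d. Visual rating versus controls on a 0 (no effect) to 100 (complete control) scale.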"}, "[2]": {"system": "sedge, umbrella (small-flower umbrella sedge, Cyperus difformis)", "assay": "Test B flooded paddy test", "conditions": "Cyperus difformis, 360 h, Flood, 250 g ai/ha; visually evaluated after 13 to 15 d; read-out: Plant response rating, Sedge, Umbrella (0 to 100 scale where 0 is no effect and 100 is complete control)", "method_in_brief": "as §1"}, "[3]": {"system": "ducksalad (Heteranthera limosa)", "assay": "Test B flooded paddy test", "conditions": "Heteranthera limosa, 360 h, Flood, 250 g ai/ha; visually evaluated after 13 to 15 d; read-out: Plant response rating, Ducksalad (0 to 100 scale where 0 is no effect and 100 is complete control)", "method_in_brief": "as §1"}, "rice (Oryra sativa)": {"system": "rice (Oryra sativa)", "assay": "Test B flooded paddy test", "conditions": "Oryza sativa, 360 h, Flood, 250 g ai/ha; visually evaluated after 13 to 15 d; read-out: Plant response rating, Rice (0 to 100 scale where 0 is no effect and 100 is complete control)", "method_in_brief": "as §1"}, "[4]": {"system": "pigweed (Amaranthus retroflexus)", "assay": "Test A postemergence", "conditions": "Amaranthus retroflexus, post-emergence, 240 h, Postemergence, read-out: Pigweed plant response rating (0 to 100 scale)", "method_in_brief": "(§2)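 Seeded soil received test chemicals as a preemergence directed spray, and seedlings at one to two leaves, 2–10 cm tall, received them postemergence, in a non-phytotoxic, surfactant-containing solvent mixture. Pots were held in a greenhouse for approximately 10 d, then rated for injury from 0, no effect, to 100, complete control.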"}, "[5]": {"system": "barnyardgrass (Echinochloa crus-galli)", "assay": "Test A postemergence", "conditions": "Echinochloa crus-galli, post-emergence, 240 h, Postemergence", "method_in_brief": "as §2"}, "[6]": {"system": "wheat (Triticum aestivum)", "assay": "Test A postemergence", "conditions": "Triticum aestivum, post-emergence, 240 h, Postemergence, read-out: Wheat plant response rating (0 to 100 scale)", "method_in_brief": "as §2"}, "[7]": {"system": "giant foxtail (Setaria faberii)", "assay": "Test A postemergence", "conditions": "Setaria faberi, post-emergence, 240 h, Postemergence, read-out: Foxtail, Giant plant response rating (0 to 100 scale)", "method_in_brief": "as §2"}, "corn (Zea mays)": {"system": "corn (Zea mays)", "assay": "Test A postemergence", "conditions": "Zea mays, post-emergence, 240 h, Postemergence, read-out: Corn plant response rating (0 to 100 scale)", "method_in_brief": "as §2"}, "[8]": {"system": "ragweed (common ragweed, Ambrosia elatior)", "assay": "Test A postemergence", "conditions": "Ambrosia artemisiifolia, post-emergence, 240 h, Postemergence, read-out: Ragweed plant response rating (0 to 100 scale)", "method_in_brief": "as §2"}, "[9]": {"system": "blackgrass (Alopecurus myosuroides)", "assay": "Test A postemergence", "conditions": "Alopecurus myosuroides, post-emergence, 240 h, Postemergence, read-out: Blackgrass plant response rating (0 to 100 scale)", "method_in_brief": "as §2"}, "[10]": {"system": "ryegrass, Italian (Italian ryegrass, Lolium multiflorum)", "assay": "Test A postemergence", "conditions": "Lolium multiflorum, post-emergence, 240 h, Postemergence, read-out: Ryegrass, Italian plant response rating (0 to 100 scale)", "method_in_brief": "as §2"}, "Kochia (Kochia scoparia) [11]": {"system": "Kochia (Kochia scoparia)", "assay": "Test A postemergence", "conditions": "Bassia scoparia, post-emergence, 240 h, Postemergence, read-out: Kochia plant response rating (0 to 100 scale)", "method_in_brief": "as §2"}, "[12]": {"system": "Galium (catchweed bedstraw, Galium aparine)", "assay": "Test A postemergence", "conditions": "Galium, post-emergence, 240 h, Postemergence, read-out: Galium plant response rating (0 to 100 scale)", "method_in_brief": "as §2"}, "[13]": {"system": "pigweed (Amaranthus retroflexus)", "assay": "Test A preemergence", "conditions": "Amaranthus retroflexus, pre-emergence, 240 h, Preemergence"}, "[14]": {"system": "barnyardgrass (Echinochloa crus-galli)", "assay": "Test A preemergence", "conditions": "Echinochloa crus-galli, pre-emergence, 240 h, Preemergence", "method_in_brief": "as §2"}, "[15]": {"system": "giant foxtail (Setaria faberii)", "assay": "Test A preemergence", "conditions": "Setaria faberi, pre-emergence, 240 h, Preemergence", "method_in_brief": "as §2"}, "[16]": {"system": "ragweed (common ragweed, Ambrosia elatior)", "assay": "Test A preemergence", "conditions": "Ambrosia artemisiifolia, pre-emergence, 240 h, Preemergence", "method_in_brief": "as §2"}, "[17]": {"system": "ryegrass, Italian (Italian ryegrass, Lolium multiflorum)", "assay": "Test A preemergence", "conditions": "Lolium multiflorum, pre-emergence, 240 h, Preemergence", "method_in_brief": "as §2"}, "Kochia (Kochia scoparia) [18]": {"system": "Kochia (Kochia scoparia)", "assay": "Test A preemergence", "conditions": "Bassia scoparia, pre-emergence, 240 h, Preemergence", "method_in_brief": "as §2"}, "[19]": {"conditions": "125 g ai/ha, visual rating about 10 d after treatment"}, "[20]": {"conditions": "31 g ai/ha, 0 is no effect, 100 is complete control"}}, "data": [{"smiles": "CN1C[C@H](c2cccc(C(F)(F)F)c2)[C@@H](C(=O)Nc2ccc(F)nc2F)C1=O", "note": "[Compound 1348]", "values": [{"measurement": "pest or weed control at 250 g/ha", "setting": "[1]", "value": 90, "unit": "%"}, {"measurement": "pest or weed control at 250 g/ha", "setting": "[2]", "value": 0, "unit": "%"}, {"measurement": "pest or weed control at 250 g/ha", "setting": "[3]", "value": 98, "unit": "%"}, {"measurement": "pest or weed control at 250 g/ha", "setting": "rice (Oryra sativa)", "value": 0, "unit": "%"}, {"measurement": "pest or weed control at 125 g/ha", "setting": "[4]; [19]", "value": 0, "unit": "%"}, {"measurement": "pest or weed control at 31 g/ha", "setting": "[4]; [20]", "value": 0, "unit": "%"}, {"measurement": "pest or weed control at 125 g/ha", "setting": "[5]; 125 g ai/ha, visual rating about 10 d after treatment, read-out: Barnyardgrass plant response rating (0 to 100 scale, 0 no effect, 100 complete control)", "value": 90, "unit": "%"}, {"measurement": "pest or weed control at 31 g/ha", "setting": "[5]; 31 g ai/ha, 0 is no effect, 100 is complete control, read-out: Barnyardgrass plant response rating (0 to 100 scale)", "value": 90, "unit": "%"}, {"measurement": "plant injury at 125 g/ha", "setting": "[6]; [19]", "value": 60, "unit": "%"}, {"measurement": "plant injury at 31 g/ha", "setting": "[6]; [20]", "value": 40, "unit": "%"}, {"measurement": "pest or weed control at 125 g/ha", "setting": "[7]; [19]", "value": 90, "unit": "%"}, {"measurement": "pest or weed control at 31 g/ha", "setting": "[7]; [20]", "value": 90, "unit": "%"}, {"measurement": "plant injury at 125 g/ha", "setting": "corn (Zea mays); [19]", "value": 80, "unit": "%"}, {"measurement": "plant injury at 31 g/ha", "setting": "corn (Zea mays); [20]", "value": 50, "unit": "%"}, {"measurement": "pest or weed control at 125 g/ha", "setting": "[8]; [19]", "value": 20, "unit": "%"}, {"measurement": "pest or weed control at 31 g/ha", "setting": "[8]; [20]", "value": 0, "unit": "%"}, {"measurement": "pest or weed control at 125 g/ha", "setting": "[9]; [19]", "value": 50, "unit": "%"}, {"measurement": "pest or weed control at 31 g/ha", "setting": "[9]; [20]", "value": 50, "unit": "%"}, {"measurement": "pest or weed control at 125 g/ha", "setting": "[10]; [19]", "value": 30, "unit": "%"}, {"measurement": "pest or weed control at 31 g/ha", "setting": "[10]; [20]", "value": 20, "unit": "%"}, {"measurement": "pest or weed control at 125 g/ha", "setting": "Kochia (Kochia scoparia) [11]; [19]", "value": 50, "unit": "%"}, {"measurement": "pest or weed control at 31 g/ha", "setting": "Kochia (Kochia scoparia) [11]; [20]", "value": 0, "unit": "%"}, {"measurement": "pest or weed control at 125 g/ha", "setting": "[12]; [19]", "value": 70, "unit": "%"}, {"measurement": "pest or weed control at 31 g/ha", "setting": "[12]; [20]", "value": 50, "unit": "%"}, {"measurement": "pest or weed control at 31 g/ha", "setting": "[13]; 31 g ai/ha, 0 to 100 scale where 0 is no effect and 100 is complete control, read-out: Pigweed plant response rating", "value": 0, "unit": "%"}, {"measurement": "pest or weed control at 125 g/ha", "setting": "[13]; 125 g ai/ha, 0 to 100 scale (0 no effect, 100 complete control), read-out: Plant response rating, Pigweed", "value": 100, "unit": "%"}, {"measurement": "pest or weed control at 31 g/ha", "setting": "[14]; 31 g ai/ha, 0 to 100 scale where 0 is no effect and 100 is complete control, read-out: Barnyardgrass plant response rating", "value": 90, "unit": "%"}, {"measurement": "pest or weed control at 125 g/ha", "setting": "[14]; 125 g ai/ha, 0 to 100 scale (0 no effect, 100 complete control), read-out: Plant response rating, Barnyardgrass", "value": 100, "unit": "%"}, {"measurement": "pest or weed control at 31 g/ha", "setting": "[15]; 31 g ai/ha, 0 to 100 scale where 0 is no effect and 100 is complete control, read-out: Foxtail, Giant plant response rating", "value": 100, "unit": "%"}, {"measurement": "pest or weed control at 125 g/ha", "setting": "[15]; 125 g ai/ha, 0 to 100 scale (0 no effect, 100 complete control), read-out: Plant response rating, Foxtail, Giant", "value": 100, "unit": "%"}, {"measurement": "pest or weed control at 31 g/ha", "setting": "[16]; 31 g ai/ha, 0 to 100 scale where 0 is no effect and 100 is complete control, read-out: Ragweed plant response rating", "value": 80, "unit": "%"}, {"measurement": "pest or weed control at 125 g/ha", "setting": "[16]; 125 g ai/ha, 0 to 100 scale (0 no effect, 100 complete control), read-out: Plant response rating, Ragweed", "value": 20, "unit": "%"}, {"measurement": "pest or weed control at 31 g/ha", "setting": "[17]; 31 g ai/ha, 0 to 100 scale where 0 is no effect and 100 is complete control, read-out: Ryegrass, Italian plant response rating", "value": 20, "unit": "%"}, {"measurement": "pest or weed control at 125 g/ha", "setting": "[17]; 125 g ai/ha, 0 to 100 scale (0 no effect, 100 complete control), read-out: Plant response rating, Ryegrass, Italian", "value": 60, "unit": "%"}, {"measurement": "pest or weed control at 31 g/ha", "setting": "Kochia (Kochia scoparia) [18]; 31 g ai/ha, 0 to 100 scale where 0 is no effect and 100 is complete control, read-out: Kochia plant response rating", "value": 0, "unit": "%"}, {"measurement": "pest or weed control at 125 g/ha", "setting": "Kochia (Kochia scoparia) [18]; 125 g ai/ha, 0 to 100 scale (0 no effect, 100 complete control), read-out: Plant response rating, Kochia", "value": 80, "unit": "%"}]}]}
